This is an account of results in US20110087153A1, “Transdermal Methods And Systems For The Delivery Of Rizatriptan” (priority 2009, published 2011).

Data set [1] in a line: Permeation through dialysis membrane (iontophoresis side-by-side diffusion cells). It counts as in vitro ADME. The protocol: Ionotophoresis side-by side diffusion cells with 9 mm diameter opening were obtained from PermeGear. The current clamps with PC control were provided by NuPathe, Inc. The temperature controller was from Henke. 2.0 mm diameter Zinc and Silver were obtained from Alpha Aesar. Sumatriptan, Zolmitriptan and Rizatriptan wore provided by NuPathe. Sodium chloride was obtained from Fisher Scientific,
A donor solution of 4% sumatriptan succinate in 0.9% NaCl was prepared. The receiver solution was 0.9% Sodium chloride in water. A Millipore 1000 mw cutoff membrane were used as the membrane. The glossy side of the membrane faced the donor compartment. The volume of the donor and receiver solution was 3.0 ml. 0.5 mm zinc wire was placed in the donor compartment and 2.0 mm silver wire was placed in the receiver compartment. The temperature of the apparatus was maintained at 33° C.
Ketoprofen was obtained from Spectrum Chemical. A 2% ketoprofen donor solution was made by dissolving in 0.1 N NaOH.
Three cells were clamped at 2 mAmps/cm^2 (1.27 mAmp/cell), 3 cells were clamped at 2 mAmp/cm^2 with the electrodes reversed, 3 cells (the control cells) were not clamped.
At each sampling point 2 ml was withdrawn from the receiver compartment and was replaced with 0.9% Sodium Chloride. Each sample was diluted using 0.9% NaCl to be within the standard curve. Absorbance was measured using a UV spectrophotometer with a 1 cm quartz cuvette at 282 nm. […]

Data set [2] is described as follows: Iontophoresis properties (charge and molecular weight analysis). It counts as physicochemical. The source says:
This is because the diffusion and permeation through a hydrophilic membrane are dependent on molecular weight, radius of the molecule and the ionic drag the molecule has with the membrane.

The nature of data set [3]: Permeation of formulated product through human cadaver skin (iontophoresis, gel formulations). It counts as in vitro ADME. The following applies: for Lag time: human cadaver skin, gel with 3.4% lauric acid, 2 mAmp/cm^2. On the procedure:
Brij 30 (Laureth-4) and adipic acid were obtained from Fisher Scientific. Eudragit E*PO was obtained from Evonik. Human cadaver skin was thawed in 0.9% NaCl for 30 minutes and patted dry. The skin was cut into 2 cm square sections. The epidermis was placed towards the donor compartment of a […] PermeGear side-by-side diffusion cell. The donor gel was placed in the donor compartment and 3 ml of normal saline solution was placed in the receiver compartment. Three cells were dosed with zolmitriptan with 3.4% lauric acid, three cells were dosed with rizatriptan with 3.4% lauric acid and two cells were dosed with rizatriptan with 3.4% Brij 30. The cells were clamped at 1.27 mAmp (2 mAmp/cm^2). Two ml of each receiver compartment was sampled every 30 minutes and replaced with normal saline solution. Each 2 ml sample was diluted 1 to 100 with water. Zolmitriptan and sumatriptan were assayed by UV at 222 nm Rizatriptan was assayed by HPLC as previously described. Additional analysis of the permeation data was conducted to find the amount of time to dose 5 mg of drug based on reasonable patch areas, and is shown in Table 4. […] However, as was observed by the previous permeation data, zolmitriptan would need a total of 43 minutes when the lag-time is considered compared to 19 minutes for rizatriptan when the lag time is considered.

Data set [4] is described as follows: Permeation of compound through human cadaver skin (iontophoresis, drug solutions). It counts as in vitro ADME. Particulars: 2 mAmp/cm^2, 2% zolmitriptan, 4% rizatriptan, 4% sumatriptan solutions (FIG. 5). The protocol: Human cadaver skin was obtained from Allosource. The skin was maintained at −70° C. prior to use. A portion of skin was thawed in 0.9% NaCl solution for 30 minutes. The skin was towel dried and cut into 2 cm square sections. The skin was mounted with the epidermis side toward the donor chamber in the Permeagear 0.9 cm diameter side-by-side diffusion cells.
A solution of 2% zolmitriptan was made by dissolving zolmitriptan in 0.1 N HCl. A 4% sumatriptan solution was made by dissolving sumatriptan in 0.1% NaCl. The 4% rizatriptan solution was made by dissolving the rizatriptan in 0.1% NaCl
Three cells were dosed with 2% zolmitriptan, three cells were dosed with 4% rizatriptan, and two cells were dosed with 4% sumatriptan. Normal saline solution was used as the receiver solution. The cells were clamped at 1.27 mAmp (2 mAmp/cm^2). 2 ml of each receiver compartment was sampled every 30 minutes and replaced with normal saline solution. One cell of the rizatriptan iontophoresis and one cell of sumatriptan iontophoresis were lost during the study due to holes in the skin.
Each 2 ml sample was diluted 1 to 100 with water. Zolmitriptan and sumatriptan were assayed by UV at 222 nm and 282 nm respectively. Rizatriptan was assay by HPLC as previously described.

For data set [5] the following is noted: cited from earlier work.
The nature of data set [6]: Oxidation stability for rizatriptan under 2 mA current. The following applies: for Rizatriptan concentration after exposure to 2 mAmp current: 0.9% NaCl. In kind it is physicochemical. The protocol:
A drug stock solution was made by dissolving 2.8 mg of rizatriptan benzoate in 0.9% NaCl to a volume of 50 mL. The working standard was prepared by diluting 0.5 ml of the stock solution to 10 ml with 0.9% NaCl. This produced a final concentration of 2.8 mcg/ml, for the working standard.
A solution was made by dissolving 0.5000 g of rizatriptan benzoate in 0.9% NaCl to a final volume of 50 mL. A 1 ml sample of this solution was kept for future assay. The remaining solution was placed in a beaker covered with parafilm Zinc wire (Cathode) and silver wire (anode) were passed through the parafilm and placed in the drug solution. Current of 2 mA was passed through the solution. Samples of 1 mL each were withdrawn every 30 minutes for 5.5 hours.
A 0.1 mL volume from each sample was diluted with 15 mL of 0.9% NaCl. A 1 ml volume of this dilution was then further diluted to 10 ml using 0.9% NaCl. Similarly, a 0.1 ml volume of the initial solution was diluted with 15 mL of 0.9% NaCl. A 1 ml volume of this dilution was then diluted to 10 ml with 0.9% NaCl.

Where [7] appears, read: 1000 mwco dialysis membrane, 33° C., UV assay.
[8] abbreviates: 1000 mwco dialysis membrane, 33° C., UV assay, listed as ketoprofen.

In the case of `CC(C(=O)O)c1cccc(C(=O)c2ccccc2)c1` (centres unmarked) [Ketoprofen], in data set [1] (setting [7]), the “Flux, Iontophoresis (2 mAmp/cm^2)” value was found to be 8.24 mcg/cm^2/min; the “Flux, Passive diffusion (No current)” value amounted to 7.41 mcg/cm^2/min; the “Flux, Reversed Electrodes (Current reversed at 2 mAmp/cm^2)” value (shortened to “Flux, Reversed Electrodes”) was 11.66 mcg/cm^2/min. Also, in data set [1] (setting [8]), the “Flux, Iontophoresis (2 mAmp/cm^2)” value is “less than the passive diffusion”; the “Flux, Passive diffusion (No current)” value is “substantial”; the “Flux, Reversed Electrodes” value is recorded as “greatest flux”. Also, the “Ratio of Iontophoresis to Passive Diffusion” value in data set [1] (1000 mwco dialysis membrane, UV assay) is 1.6.

Regarding `CN(C)CCc1c[nH]c2ccc(C[C@H]3COC(=O)N3)cc12` [Zolmitriptan], in data set [2], the “Ionizable Nitrogens” value is 3 and the “MW/charge Ratio” value is 92.8. Also, in data set [3], the Lag time is 20 min and the “Total time to deliver 5 mg when the lag time is considered” value amounted to 43 min. Besides, in data set [4], the “Skin permeation by iontophoresis” value is recorded as “very comparable to the permeation of sumatriptan via iontophoresis”. In data set [1] (not told), the “Flux, Passive diffusion (No current)” value amounted to 3.32 mcg/cm^2/min; the “Flux, Reversed Electrodes” value worked out at 0.05 mcg/cm^2/min; the “Ratio of Iontophoresis to Passive Diffusion” value came to 11.5.

`CCCCCCCCCCCC(=O)O` [Lauric acid]: the pKa result in data set [5] is listed as “around 4.9”.

Turning to `CN(C)CCc1c[nH]c2ccc(Cn3cncn3)cc12` [Rizatriptan], the “Ionizable Nitrogens” value in data set [2] was 3. Besides, the “MW/charge Ratio” value in data set [2] was 89.8. This molecule yielded a Lag time in data set [3] of 9 min. Moreover, the “Total time to deliver 5 mg when the lag time is considered” value in data set [3] is 19 min. Also, the “Time in which a dose (5 mg) can be delivered” value in data set [3] (suggested by the results of the formulation studies) is reported as “about 45 minutes”. Also, the “Rizatriptan concentration after exposure to 2 mAmp current” value in data set [6] (0 min) was found to be 10.000 mg/mL; in data set [6] (30 min), 10.041 mg/mL; in data set [6] (60 min) it was 9.829 mg/mL; in data set [6] (90 min) it was 9.909 mg/mL; in data set [6] (120 min) it was 9.782 mg/mL; in data set [6] (150 min), 9.942 mg/mL. For the same molecule, the “Rizatriptan concentration after exposure to 2 mAmp current” value in data set [6] (180 min) was found to be 9.875 mg/mL; in data set [6] (210 min) it was 9.801 mg/mL; in data set [6] (240 min), 9.758 mg/mL; in data set [6] (270 min) it was 9.963 mg/mL; in data set [6] (300 min), 9.216 mg/mL; in data set [6] (330 min), 9.389 mg/mL. In data set [6] (2 mA current), the “Exposure time after which degradation becomes significant” value is > 4 h. Also, in data set [6] (2 mA current, regression with all data), the Rate of degradation was ~16 µg/mL/min. Further, in data set [6] (during the 5.5 hour exposure to 2 mA current), the Degradation result is “approximately 7%”. For the same molecule, the “Skin permeation by iontophoresis” value in data set [4] was “greater skin permeation than sumatriptan and zolmitriptan”.

Take `CNS(=O)(=O)Cc1ccc2[nH]cc(CCN(C)C)c2c1` [Sumatriptan]: in data set [2], the “Ionizable Nitrogens” value worked out at 2 and the “MW/charge Ratio” value is reported as 147.7. Besides, in data set [1] (not told), the “Flux, Passive diffusion (No current)” value came to 0.58 mcg/cm^2/min and the “Flux, Reversed Electrodes” value is given as 0.11 mcg/cm^2/min.
